Publication PMC9386018, “A lymphatic-absorbed multi-targeted kinase inhibitor for myelofibrosis therapy” (Nature Communications, 2022)
Values joined by “and” are separate entries in the source; they are usually repeats but may differ in a detail not shown here. Identical values can stand only once.

Tests used:
[1] = biological target: Target kinase isoforms (PI3K, mTOR, RAF, MEK) (Homo sapiens, UniProt P42338); test: Target kinase isoforms 10-point IC50 determination (Supplementary Fig. 7); assay type: biochemical; details: PI3K beta
Description: (§1) The average percent kinase inhibition from replicate data was ranked low to high, converted to a compatible identifier format, then input into Coral Human Kinome Visualization software for presentation analysis. […] Scaling of evolutionary distance for PI kinases is only relative and is based on literature analysis[62],[63]. Average percent kinome inhibition values from replicate data are supplied in Source Data file. […] Corrected data was normalized to vehicle treated control values, and dose response percent kinase activity was analyzed by non-linear regression for determination of IC50 values.

[2] = biological target: Target kinase isoforms (PI3K, mTOR, RAF, MEK) (Homo sapiens, UniProt P42345); test: as above; assay type: biochemical; details: mTOR
Description: as §1

[3] = biological target: Target kinase isoforms (PI3K, mTOR, RAF, MEK) (Homo sapiens, UniProt P42336); test: as above; assay type: biochemical; details: PI3K alpha
Description: as §1

[4] = biological target: Target kinase isoforms (PI3K, mTOR, RAF, MEK) (Homo sapiens, UniProt P48736); test: as above; assay type: biochemical; details: PI3K gamma
Description: as §1

[5] = Pharmacokinetic analysis of plasma after intravenous and oral dosing; details: for concentration at 0.5 h / concentration at 1 h / concentration at 2 h / concentration at 4 h / concentration at 7 h / concentration at 24 h / half-life: female, CD-1, mouse
Description: Samples were centrifuged at 15,000 rpm for 10 min, then blood plasma was collected from the upper layer and frozen at −80 °C until analysis. […] Sample processing, chromatographic separation, MS, and MS/MS parameters used for analysis were determined by the core. […] Standard curves for peak area ratio of compound to internal standard (Astd/AIstd) vs. compound concentration were used to determine sample analyte concentrations through linear regression with a weighting average of 1/X^2. […] All pharmacokinetic parameters were estimated using non-compartmental analysis with Phoenix/WINONLIN, and provided by the core along with calculated sample analyte concentrations. Data was generated from n ≥ 3 individual animals sampled per time point per compound for each method of dosing.

[6] = concentration 0.495 nM, 0.000495 µM
[7] = concentration 1.52 nM, 0.00152 µM
[8] = concentration 4.57 nM, 0.00457 µM
[9] = concentration 41.2 nM, 0.0412 µM

Sequence of Target kinase isoforms (PI3K, mTOR, RAF, MEK) (Homo sapiens, UniProt P48736) (P48736 whole entry, canonical isoform): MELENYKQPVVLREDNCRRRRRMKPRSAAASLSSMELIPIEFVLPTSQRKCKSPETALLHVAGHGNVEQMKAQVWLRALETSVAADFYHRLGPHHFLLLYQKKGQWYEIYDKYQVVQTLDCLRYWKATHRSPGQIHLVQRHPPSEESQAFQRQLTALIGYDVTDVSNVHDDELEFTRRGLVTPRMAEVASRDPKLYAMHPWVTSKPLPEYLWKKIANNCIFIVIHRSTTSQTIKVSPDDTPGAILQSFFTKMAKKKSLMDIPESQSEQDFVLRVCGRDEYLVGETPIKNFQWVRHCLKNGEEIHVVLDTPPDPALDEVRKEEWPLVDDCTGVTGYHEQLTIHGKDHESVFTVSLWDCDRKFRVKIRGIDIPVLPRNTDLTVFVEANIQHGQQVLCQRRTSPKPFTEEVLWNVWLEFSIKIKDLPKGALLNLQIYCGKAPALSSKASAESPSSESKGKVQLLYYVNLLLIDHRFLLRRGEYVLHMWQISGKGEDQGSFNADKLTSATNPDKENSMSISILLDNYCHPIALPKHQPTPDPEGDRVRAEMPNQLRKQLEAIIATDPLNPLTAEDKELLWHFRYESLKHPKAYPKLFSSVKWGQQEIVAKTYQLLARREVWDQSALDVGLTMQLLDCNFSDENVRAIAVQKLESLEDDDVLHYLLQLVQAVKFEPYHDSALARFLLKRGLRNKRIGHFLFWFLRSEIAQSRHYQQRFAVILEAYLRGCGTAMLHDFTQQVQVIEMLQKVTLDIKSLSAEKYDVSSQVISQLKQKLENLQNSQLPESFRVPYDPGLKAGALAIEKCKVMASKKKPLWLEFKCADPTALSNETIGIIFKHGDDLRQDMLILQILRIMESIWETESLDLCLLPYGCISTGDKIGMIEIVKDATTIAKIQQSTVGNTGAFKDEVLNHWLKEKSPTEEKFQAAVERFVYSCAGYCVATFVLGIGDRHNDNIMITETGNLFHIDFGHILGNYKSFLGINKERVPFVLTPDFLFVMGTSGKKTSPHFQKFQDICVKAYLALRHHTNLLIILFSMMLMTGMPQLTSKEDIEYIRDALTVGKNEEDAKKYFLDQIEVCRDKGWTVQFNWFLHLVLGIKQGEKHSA
Sequence of Target kinase isoforms (PI3K, mTOR, RAF, MEK) (Homo sapiens, UniProt P42336) (P42336 whole entry, canonical isoform): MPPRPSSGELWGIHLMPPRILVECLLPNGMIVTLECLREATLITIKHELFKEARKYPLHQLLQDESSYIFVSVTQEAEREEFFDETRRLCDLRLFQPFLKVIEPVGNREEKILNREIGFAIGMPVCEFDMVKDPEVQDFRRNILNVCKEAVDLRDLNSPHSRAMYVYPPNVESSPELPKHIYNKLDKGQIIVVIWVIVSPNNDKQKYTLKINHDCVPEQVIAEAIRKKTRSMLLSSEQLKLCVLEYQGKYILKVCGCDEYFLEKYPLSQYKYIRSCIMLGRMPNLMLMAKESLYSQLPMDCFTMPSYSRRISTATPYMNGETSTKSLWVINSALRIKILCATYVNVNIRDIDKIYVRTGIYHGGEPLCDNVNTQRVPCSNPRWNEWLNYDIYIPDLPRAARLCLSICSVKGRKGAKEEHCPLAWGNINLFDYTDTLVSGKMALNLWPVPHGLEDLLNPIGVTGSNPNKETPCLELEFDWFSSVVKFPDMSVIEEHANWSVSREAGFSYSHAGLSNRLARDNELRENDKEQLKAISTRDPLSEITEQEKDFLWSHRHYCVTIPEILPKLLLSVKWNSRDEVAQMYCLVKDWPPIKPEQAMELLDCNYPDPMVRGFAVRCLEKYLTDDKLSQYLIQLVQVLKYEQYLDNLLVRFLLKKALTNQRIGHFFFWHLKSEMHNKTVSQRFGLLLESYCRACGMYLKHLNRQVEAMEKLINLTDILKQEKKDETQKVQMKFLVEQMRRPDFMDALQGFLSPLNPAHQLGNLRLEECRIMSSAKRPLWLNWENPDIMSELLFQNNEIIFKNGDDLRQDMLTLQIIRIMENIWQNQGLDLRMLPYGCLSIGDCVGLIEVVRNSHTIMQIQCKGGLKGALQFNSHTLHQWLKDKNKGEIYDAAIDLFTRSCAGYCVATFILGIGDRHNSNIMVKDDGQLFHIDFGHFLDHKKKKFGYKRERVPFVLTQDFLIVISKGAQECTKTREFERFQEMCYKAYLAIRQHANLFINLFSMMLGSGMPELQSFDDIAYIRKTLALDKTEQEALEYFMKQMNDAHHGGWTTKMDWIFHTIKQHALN
Sequence of Target kinase isoforms (PI3K, mTOR, RAF, MEK) (Homo sapiens, UniProt P42338) (P42338 whole entry, canonical isoform): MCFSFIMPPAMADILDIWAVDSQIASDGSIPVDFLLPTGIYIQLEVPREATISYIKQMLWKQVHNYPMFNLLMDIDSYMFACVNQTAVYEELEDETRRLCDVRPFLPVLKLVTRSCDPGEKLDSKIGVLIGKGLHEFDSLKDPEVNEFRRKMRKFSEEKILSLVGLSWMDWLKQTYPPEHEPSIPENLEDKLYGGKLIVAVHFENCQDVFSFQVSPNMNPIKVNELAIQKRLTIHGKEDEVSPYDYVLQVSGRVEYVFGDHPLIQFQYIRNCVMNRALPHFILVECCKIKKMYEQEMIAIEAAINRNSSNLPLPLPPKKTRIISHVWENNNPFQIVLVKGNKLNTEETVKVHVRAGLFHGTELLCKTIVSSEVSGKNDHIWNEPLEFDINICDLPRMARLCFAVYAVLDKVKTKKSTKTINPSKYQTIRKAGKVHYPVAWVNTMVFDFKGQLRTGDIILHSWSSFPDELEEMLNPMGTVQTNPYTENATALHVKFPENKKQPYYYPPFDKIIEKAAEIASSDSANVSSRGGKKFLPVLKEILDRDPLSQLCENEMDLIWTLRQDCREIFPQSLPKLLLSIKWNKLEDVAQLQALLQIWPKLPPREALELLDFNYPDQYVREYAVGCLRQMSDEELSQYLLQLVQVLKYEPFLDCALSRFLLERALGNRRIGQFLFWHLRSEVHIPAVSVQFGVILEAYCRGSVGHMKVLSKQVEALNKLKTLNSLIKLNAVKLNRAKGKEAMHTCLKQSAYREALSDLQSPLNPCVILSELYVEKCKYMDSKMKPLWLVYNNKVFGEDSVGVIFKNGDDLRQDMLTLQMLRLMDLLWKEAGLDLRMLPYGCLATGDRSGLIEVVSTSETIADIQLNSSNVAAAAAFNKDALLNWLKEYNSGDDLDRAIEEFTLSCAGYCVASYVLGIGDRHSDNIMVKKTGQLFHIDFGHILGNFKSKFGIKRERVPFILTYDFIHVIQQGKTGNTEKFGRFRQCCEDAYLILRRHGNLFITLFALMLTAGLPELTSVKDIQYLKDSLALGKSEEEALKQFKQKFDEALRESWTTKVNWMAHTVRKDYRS

Structure (SMILES): O=C(NOCCOCCOCCOCCC(=O)N1CCN(c2cnc3ccc(-c4cnc(Cl)c(NS(=O)(=O)c5ccc(F)cc5)c4)cc3n2)CC1)c1ccc(F)c(F)c1Nc1ccc(I)cc1F [LP-182, N-(2-(2-(2-(3-(4-(7-(6-chloro-5-((4-fluorophenyl)sulfonamido)pyridin-3-yl)quinoxalin-2-yl)piperazin-1-yl)-3-oxopropoxy)ethoxy)ethoxy)ethoxy)-3,4-difluoro-2-((2-fluoro-4-iodophenyl)amino)benzamide]
- Kinase Activity (%) PI3K beta [1, 6]: 105% and 85% and 110% and 102% and 121% and 113%
- Kinase Activity (%) PI3K beta [1, 7]: 95% and 99% and 101% and 103% and 119% and 118%
- Kinase Activity (%) PI3K beta [1, 8]: 89% and 94% and 105% and 106% and 117% and 114%
- Kinase Activity (%) PI3K beta [1, 9]: 80% and 74% and 95% and 101% and 98% and 107%
- Kinase Activity (%) PI3K beta ([1]; concentration 123 nM, 0.123 µM): 63% and 51% and 71% and 72% and 84%
- activity at 3.33 µM ([1]; concentration 3330 nM): 16%
- Kinase Activity (%) PI3K beta ([1]; concentration 3330 nM, 3.33 µM): 24% and 12% and 13% and 14%
- Kinase Activity (%) PI3K beta ([1]; concentration 10000 nM, 10 µM): 13% and 5% and 3%
- activity at 0.000495 µM ([2]; concentration 0.495 nM): 95%
- Kinase Activity (%) mTOR [2, 6]: 99% and 98% and 101% and 94% and 96%
- activity at 0.00152 µM ([2]; concentration 1.52 nM): 97%
- Kinase Activity (%) mTOR [2, 7]: 99% and 100% and 94%
- activity at 0.00457 µM ([2]; concentration 4.57 nM): 91%
- Kinase Activity (%) mTOR [2, 8]: 92% and 94% and 87% and 88%
- activity at 0.0412 µM ([2]; concentration 41.2 nM): 52%
- Kinase Activity (%) mTOR [2, 9]: 63% and 57% and 47%
- activity at 0.123 µM ([2]; concentration 123 nM): 29%
- Kinase Activity (%) mTOR ([2]; concentration 123 nM, 0.123 µM): 30% and 32% and 31%
- activity at […] ([2]; concentration 370 nM): 13%
- Kinase Activity (%) mTOR ([2]; concentration 1110 nM, 1.11 µM): 4% and 3% and 5% and 1% and 2%
- Kinase Activity (%) mTOR ([2]; concentration 3330 nM, 3.33 µM): 0% and -1% and -2%
- Kinase Activity (%) mTOR ([2]; concentration 10000 nM, 10 µM): 2% and -1% and 1%
- Kinase Activity (%) PI3K alpha ([3]; concentration 0.0188 nM, 18.8 pM): 97% and 99% and 100% and 98% and 76% and 90%
- Kinase Activity (%) PI3K alpha ([3]; concentration 0.0564 nM, 56.4 pM): 93% and 98% and 99% and 108% and 106% and 80% and 82% and 89%
- Kinase Activity (%) PI3K alpha [3, 6]: 79%
- activity at 0.00457 µM ([3]; concentration 4.57 nM): 27%
- Kinase Activity (%) PI3K alpha [3, 9]: 4% and 6% and 8% and 9% and 5% and 10% and 7%
- Kinase Activity (%) PI3K alpha ([3]; concentration 123 nM, 0.123 µM): 1% and 3% and 4% and 2% and 6%
- Kinase Activity (%) PI3K alpha ([3]; concentration 1110 nM, 1.11 µM): 0% and 1%
- Kinase Activity (%) PI3K alpha ([3]; concentration 3330 nM, 3.33 µM): 1% and 0% and 2%
- Kinase Activity (%) PI3K alpha ([3]; concentration 10000 nM, 10 µM): 5% and 0% and 3% and 1%
- activity at 0.123 µM ([4]; concentration 123 nM): 20%
- activity at […] ([4]; concentration 370 nM): 6%
- Kinase Activity (%) PI3K gamma ([4]; concentration 1110 nM, 1.11 µM): 1% and 3% and 4% and 0%
- Kinase Activity (%) PI3K gamma ([4]; concentration 3330 nM, 3.33 µM): 0% and 1%
- Kinase Activity (%) PI3K gamma ([4]; concentration 10000 nM, 10 µM): 4% and 0% and 2%
- Concentration ([5]; Supplementary Figure 6a, i.v., Time 0.167 h, individual replicates): 11100 ng/mL and 8270 ng/mL and 5220 ng/mL
- Concentration ([5]; Supplementary Figure 6a, i.v., Time 0.5 h, individual replicates): 807 ng/mL and 646 ng/mL
- Concentration ([5]; Supplementary Figure 6a, i.v., Time 1 h, individual replicates): 451 ng/mL and 857 ng/mL
- Concentration ([5]; Supplementary Figure 6a, i.v., Time 2 h, individual replicates): 275 ng/mL and 179 ng/mL
- Concentration ([5]; Supplementary Figure 6a, i.v., Time 4 h, individual replicates): 141 ng/mL and 75.9 ng/mL
- Concentration ([5]; Supplementary Figure 6a, i.v., Time 7 h, individual replicates): 51.4 ng/mL and 34.3 ng/mL
- Concentration ([5]; Supplementary Figure 6a, i.v., Time 16 h, individual replicates): 30.6 ng/mL and 29.3 ng/mL and 5.58 ng/mL
- Concentration ([5]; Supplementary Figure 6a, i.v., Time 24 h, individual replicates): 7.68 ng/mL and 8.28 ng/mL
- Concentration ([5]; Supplementary Figure 6a, p.o., Time 0.167 h, individual replicates): 731 ng/mL and 1660 ng/mL and 900 ng/mL
- Concentration ([5]; Supplementary Figure 6a, p.o., Time 0.5 h, individual replicates): 2150 ng/mL and 2630 ng/mL
- Concentration ([5]; Supplementary Figure 6a, p.o., Time 1 h, individual replicates): 1580 ng/mL and 1950 ng/mL
- Concentration ([5]; Supplementary Figure 6a, p.o., Time 2 h, individual replicates): 424 ng/mL and 145 ng/mL and 74.1 ng/mL
- Concentration ([5]; Supplementary Figure 6a, p.o., Time 4 h, individual replicates): 146 ng/mL and 522 ng/mL and 339 ng/mL
- Concentration ([5]; Supplementary Figure 6a, p.o., Time 7 h, individual replicates): 331 ng/mL and 97.6 ng/mL and 1560 ng/mL
- Concentration ([5]; Supplementary Figure 6a, p.o., Time 16 h, individual replicates): 79.2 ng/mL and 205 ng/mL and 265 ng/mL
- Concentration ([5]; Supplementary Figure 6a, p.o., Time 24 h, individual replicates): 401 ng/mL and 114 ng/mL and 295 ng/mL
- concentration at 0.5 h ([5]; plasma, iv, 15 mg kg^−1, Concentration (ng/mL), mice, single i.v. LP-182 15 mg kg^−1, 0.5 h, analyte = label, individual animals): 1180 ng/mL
- concentration at 1 h ([5]; plasma, iv, 15 mg kg^−1, Concentration (ng/mL), mice, single i.v. LP-182 15 mg kg^−1, 1 h, analyte = label, individual animals): 524 ng/mL
- concentration at 2 h ([5]; plasma, iv, 15 mg kg^−1, Concentration (ng/mL), mice, single i.v. LP-182 15 mg kg^−1, 2 h, analyte = label, individual animals): 275 ng/mL
- concentration at 4 h ([5]; plasma, iv, 15 mg kg^−1, Concentration (ng/mL), mice, single i.v. LP-182 15 mg kg^−1, 4 h, analyte = label, individual animals): 83.2 ng/mL
- concentration at 7 h ([5]; plasma, iv, 15 mg kg^−1, Concentration (ng/mL), mice, single i.v. LP-182 15 mg kg^−1, 7 h, analyte = label, individual animals): 29.2 ng/mL
- concentration at 24 h ([5]; plasma, iv, 15 mg kg^−1, Concentration (ng/mL), mice, single i.v. LP-182 15 mg kg^−1, 24 h, analyte = label, individual animals): 9.67 ng/mL
- concentration at 0.5 h ([5]; plasma, iv, 15 mg kg^−1, Concentration, Supplementary Figure 6a, Time 0.5 h, individual replicates): 1180 ng/mL
- concentration at 1 h ([5]; plasma, iv, 15 mg kg^−1, Concentration, Supplementary Figure 6a, Time 1 h, individual replicates): 524 ng/mL
- concentration at 2 h ([5]; plasma, iv, 15 mg kg^−1, Concentration, Supplementary Figure 6a, Time 2 h, individual replicates): 275 ng/mL
- concentration at 4 h ([5]; plasma, iv, 15 mg kg^−1, Concentration, Supplementary Figure 6a, Time 4 h, individual replicates): 83.2 ng/mL
- concentration at 7 h ([5]; plasma, iv, 15 mg kg^−1, Concentration, Supplementary Figure 6a, Time 7 h, individual replicates): 29.2 ng/mL
- concentration at 24 h ([5]; plasma, iv, 15 mg kg^−1, Concentration, Supplementary Figure 6a, Time 24 h, individual replicates): 9.67 ng/mL
- half-life ([5]; plasma, iv, 15 mg/kg): 7.9 h
- concentration at 0.5 h ([5]; plasma, po, 400 mg kg^−1, Concentration (ng/mL), mice, single p.o. LP-182 400 mg kg^−1, 0.5 h, analyte = label, individual animals): 2530 ng/mL
- concentration at 1 h ([5]; plasma, po, 400 mg kg^−1, Concentration (ng/mL), mice, single p.o. LP-182 400 mg kg^−1, 1 h, analyte = label, individual animals): 1240 ng/mL
- concentration at 0.5 h ([5]; plasma, po, 400 mg kg^−1, Concentration, Supplementary Figure 6a, Time 0.5 h, individual replicates): 2530 ng/mL
- concentration at 1 h ([5]; plasma, po, 400 mg kg^−1, Concentration, Supplementary Figure 6a, Time 1 h, individual replicates): 1240 ng/mL
- half-life ([5]; plasma, po, 400 mg/kg): 12.7 h
- plasma level maintained over 24 h ([5]; mice, after oral LP-182 400 mg kg^−1, analyte = label): ~ 300 ng mL^-1
- Concentration ([5]; mice, plasma, single i.v. LP-182 15 mg kg^−1, 0.167 h, analyte = label, individual animals): 11100 ng/mL and 8270 ng/mL and 5220 ng/mL
- Concentration ([5]; mice, plasma, single i.v. LP-182 15 mg kg^−1, 0.5 h, analyte = label, individual animals): 807 ng/mL and 646 ng/mL
- Concentration ([5]; mice, plasma, single i.v. LP-182 15 mg kg^−1, 1 h, analyte = label, individual animals): 451 ng/mL and 857 ng/mL
- Concentration ([5]; mice, plasma, single i.v. LP-182 15 mg kg^−1, 2 h, analyte = label, individual animals): 275 ng/mL and 179 ng/mL
- Concentration ([5]; mice, plasma, single i.v. LP-182 15 mg kg^−1, 4 h, analyte = label, individual animals): 141 ng/mL and 75.9 ng/mL
- Concentration ([5]; mice, plasma, single i.v. LP-182 15 mg kg^−1, 7 h, analyte = label, individual animals): 51.4 ng/mL and 34.3 ng/mL
- Concentration ([5]; mice, plasma, single i.v. LP-182 15 mg kg^−1, 16 h, analyte = label, individual animals): 30.6 ng/mL and 29.3 ng/mL and 5.58 ng/mL
- Concentration ([5]; mice, plasma, single i.v. LP-182 15 mg kg^−1, 24 h, analyte = label, individual animals): 7.68 ng/mL and 8.28 ng/mL
- Concentration ([5]; mice, plasma, single p.o. LP-182 400 mg kg^−1, 0.167 h, analyte = label, individual animals): 731 ng/mL and 1660 ng/mL and 900 ng/mL
- Concentration ([5]; mice, plasma, single p.o. LP-182 400 mg kg^−1, 0.5 h, analyte = label, individual animals): 2150 ng/mL and 2630 ng/mL
- Concentration ([5]; mice, plasma, single p.o. LP-182 400 mg kg^−1, 1 h, analyte = label, individual animals): 1580 ng/mL and 1950 ng/mL
- Concentration ([5]; mice, plasma, single p.o. LP-182 400 mg kg^−1, 2 h, analyte = label, individual animals): 424 ng/mL and 145 ng/mL and 74.1 ng/mL
- Concentration ([5]; mice, plasma, single p.o. LP-182 400 mg kg^−1, 4 h, analyte = label, individual animals): 146 ng/mL and 522 ng/mL and 339 ng/mL
- Concentration ([5]; mice, plasma, single p.o. LP-182 400 mg kg^−1, 7 h, analyte = label, individual animals): 331 ng/mL and 97.6 ng/mL and 1560 ng/mL
- Concentration ([5]; mice, plasma, single p.o. LP-182 400 mg kg^−1, 16 h, analyte = label, individual animals): 79.2 ng/mL and 205 ng/mL and 265 ng/mL
- Concentration ([5]; mice, plasma, single p.o. LP-182 400 mg kg^−1, 24 h, analyte = label, individual animals): 401 ng/mL and 114 ng/mL and 295 ng/mL
